According to patent publication US20240132484A1, “BROAD SPECTRUM ANTIVIRAL COMPOUNDS TARGETING THE SKI COMPLEX” (priority 2020, published 2024):
Where two headings read alike, the source gives them in different places.

Legend:
[1] = test system: SARS2; format: cell-based, SARS-CoV-2; conditions: for Percentage Inhibition Average 1 μM / Screening data (Relative infection to DMSO controls) Average 1 μM: SARS2, 1 μM; for Screening data (Relative infection to DMSO controls) Average 1 μM / Screening data (Relative infection to DMSO controls) Average 5 μM / Screening data (Relative infection to DMSO controls) Average 10 μM / Screening data (Relative infection to DMSO controls) Average 25 μM / Screening data (Relative infection to DMSO controls) Average 50 μM / Average (relative infection to DMSO over the 5 tested concentrations): 100=DMSO control; for Percentage Inhibition Average 5 μM / Screening data (Relative infection to DMSO controls) Average 5 μM: SARS2, 5 μM; for Percentage Inhibition Average 10 μM / Screening data (Relative infection to DMSO controls) Average 10 μM: SARS2, 10 μM; for Percentage Inhibition Average 25 μM / Screening data (Relative infection to DMSO controls) Average 25 μM: SARS2, 25 μM; for Percentage Inhibition Average 50 μM / Screening data (Relative infection to DMSO controls) Average 50 μM: SARS2, 50 μM; for Average (relative infection to DMSO over the 5 tested concentrations): SARS2, average over 1 to 50 uM
[2] = test system: cells (nuclei count); conditions: for Relative cell count to DMSO controls, Average 1 μM / Relative cell count to DMSO controls, Average 5 μM / Relative cell count to DMSO controls, Average 10 μM / Relative cell count to DMSO controls, Average 25 μM / Relative cell count to DMSO controls, Average 50 μM: toxicity data, 100=DMSO control; for Relative cell count to DMSO controls, Average (for correlation analysis): average value over the 5 tested concentrations (1 to 50 uM)

SMILES: CN1CCN(CC(O)COc2cccc(N3CCCCC3)c2CNCCc2ccccc2F)CC1 (stereo not shown) [SILCS10]
- SARS2 antiviral activity [1]: strong activity
- Percentage Inhibition Average 1 μM [1]: 47.40%
- Screening data (Relative infection to DMSO controls) Average 1 μM [1]: 52.60
- Percentage Inhibition Average 5 μM [1]: 56.27%
- Screening data (Relative infection to DMSO controls) Average 5 μM [1]: 43.73
- Percentage Inhibition Average 10 μM [1]: 58.42%
- Screening data (Relative infection to DMSO controls) Average 10 μM [1]: 41.58
- Percentage Inhibition Average 25 μM [1]: 66.00%
- Screening data (Relative infection to DMSO controls) Average 25 μM [1]: 34.00
- Percentage Inhibition Average 50 μM [1]: 93.61%
- Screening data (Relative infection to DMSO controls) Average 50 μM [1]: 6.39
- Average (relative infection to DMSO over the 5 tested concentrations) [1]: 35.66
- Relative cell count to DMSO controls, Average 1 μM [2]: 131.94
- Relative cell count to DMSO controls, Average 5 μM [2]: 141.21
- Relative cell count to DMSO controls, Average 10 μM [2]: 131
- Relative cell count to DMSO controls, Average 25 μM [2]: 50.46
- Relative cell count to DMSO controls, Average 50 μM [2]: 84.08
- Toxicity Data, Average, Mean (relative to DMSO control) ([2]; Average of Exp 1-3, 1 uM): 131.94%
- Toxicity Data, Average, Mean (relative to DMSO control) ([2]; Average of Exp 1-3, 5 uM): 141.21%
- Toxicity Data, Average, Mean (relative to DMSO control) ([2]; Average of Exp 1-3, 10 uM): 131.00%
- Toxicity Data, Average, Mean (relative to DMSO control) ([2]; Average of Exp 1-3, 25 uM): 50.46%
- Toxicity Data, Average, Mean (relative to DMSO control) ([2]; Average of Exp 1-3, 50 uM): 84.08%
- Relative cell count to DMSO controls, Average (for correlation analysis) [2]: 107.74

SMILES: Cc1ccc(CN(CCN(C)C)Cc2ccccc2)o1 [SILCS11]
- SARS2 antiviral activity [1]: improved activity over SILCS1
- Percentage Inhibition Average 1 μM [1]: 24.29%
- Screening data (Relative infection to DMSO controls) Average 1 μM [1]: 75.71
- Percentage Inhibition Average 5 μM [1]: 21.46%
- Screening data (Relative infection to DMSO controls) Average 5 μM [1]: 78.54
- Percentage Inhibition Average 10 μM [1]: 45.84%
- Screening data (Relative infection to DMSO controls) Average 10 μM [1]: 54.16
- Percentage Inhibition Average 25 μM [1]: 64.99%
- Screening data (Relative infection to DMSO controls) Average 25 μM [1]: 35.01
- Percentage Inhibition Average 50 μM [1]: 79.69%
- Screening data (Relative infection to DMSO controls) Average 50 μM [1]: 20.31
- Average (relative infection to DMSO over the 5 tested concentrations) [1]: 52.75
- Relative cell count to DMSO controls, Average 1 μM [2]: 111.01
- Relative cell count to DMSO controls, Average 5 μM [2]: 106.15
- Relative cell count to DMSO controls, Average 10 μM [2]: 120.55
- Relative cell count to DMSO controls, Average 25 μM [2]: 105.91
- Relative cell count to DMSO controls, Average 50 μM [2]: 80.38
- Toxicity Data, Average, Mean (relative to DMSO control) ([2]; Average of Exp 1-3, 1 uM): 111.01%
- Toxicity Data, Average, Mean (relative to DMSO control) ([2]; Average of Exp 1-3, 5 uM): 106.15%
- Toxicity Data, Average, Mean (relative to DMSO control) ([2]; Average of Exp 1-3, 10 uM): 120.55%
- Toxicity Data, Average, Mean (relative to DMSO control) ([2]; Average of Exp 1-3, 25 uM): 105.91%
- Toxicity Data, Average, Mean (relative to DMSO control) ([2]; Average of Exp 1-3, 50 uM): 80.38%
- Relative cell count to DMSO controls, Average (for correlation analysis) [2]: 104.80
